# Laboratory results taken from patent US20260077055A1, “COMPOSITIONS OF POLYPLEXES AND SAPONINS” (SAPREME TECHNOLOGIES B.V., priority 2022, published 2026).
# Tested on: EGFR+ A431 cells
# Assay: Cell viability (MTS) after polyplex transfection of A431 cells
# Format: cell-based
# Protocol: Spectrophotometry: Concentrations were determined using either a Thermo Nanodrop 2000 spectrometer or Perkin Elmer Lambda 365 Spectrophotometer. DLS measurements: DLS measurements were performed on a Malvern Nano ZS (Malvern Instruments, U.K.), operating at 633 nm with a 173° scattering angle, at 25 or 37° C. DLS mean diameters were obtained from the intensity particle size distribution provided by Malvern Zetasizer Software. DLS histograms were obtained from the intensity particle size distributions. Zeta-potential: The zeta-potential values of the polyplexes were obtained by laser doppler anemometry (LDA), measuring the mean electrophoretic mobility (Malvern Zetasizer Nano ZS, Malvern Instruments, U.K.). Measurements were performed in 10 mM HEPES pH 7.1, 150 mM NaCl. TEM measurements: TEM measurements were performed on a JEOL JEM-1011 operated at 100 kV electron microscope, equipped with a camera S5 MegaView G2. A drop of a solution of polyplexes (0.1 mg/mL) was settled on a PELCO® TEM carbon type-B film copper grid and allowed to dry at room temperature for 1 h. Infrared Spectroscopy: FT-IR spectra were recorded on a Bruker Vertex 70v, equipped with a RockSolid interferometer, after preparing the samples (1-2 mg) as KBr pellets. Spectra were processed using OPUS 7.8 software (Bruker). NMR Spectroscopy: 1H NMR spectra were recorded on a 11.7 T Bruker DRX-500 spectrometer. Chemical shifts are reported in ppm (o units) downfield from the HOD residual solvent peak (CD3OD). Experiments were recorded acquiring 64-512 scans, with a pre-scan delay (d1) of 12 s, and an acquisition time (aq) of 4 s at 300 K. 13C NMR spectrum was recorder on a 9.39 T Varian Innova 400 spectrometer. MestReNova 14.2 software (Mestrelab Research) was used for spectra processing. Cell culture conditions and treatments: HEK293FT, A431, A2058, Neuro2A, Hepa1-6 and MDA-MB 468 were maintained in 10% FBS-supplemented DMEM medium (PAN-Biotech GmbH, or Lonza Group, Basel, Switzerland)+Pen/Strep at 37° C. with 5% CO2. […] SO1861-EMCH was conjugated into/onto these polyplexes or co-administrated at 966 or 4000 nM to the different cell lines in vitro (as indicated). For this, cells were seeded in a 96 well plate at 5.000-10.000 c/w in 100 μL/well and incubated overnight at 37° C. Before treatment, the mAb-SO1861 and polyplexes were diluted separately in DPBS (PAN-Biotech GmbH) to 10× the required final concentration. The cells received 80 μL/well fresh media, followed by 20 μL/well polyplex solution and 20 μL/well saponin solution. In particular, before K16-polyplex treatments, K16-polyplexes were formulated in 10 mM HEPES, incubated for 30 min at room temperature and then diluted with complete cell culture medium. The complete cell culture medium was exchanged against 100 μL transfection medium. For co-administration of SO1861-EMCH, the transfection medium was supplemented with 2 μg/mL (=966 nM) SO1861-EMCH. Control transfections were performed with Lipofectamine™ 3000 Transfection Reagent (Thermo Fisher Scientific) according to the manufacturer's instruction, using either […] or 100 ng plasmid and with a media change 4-5 hrs after transfection. […] After treatment, the cells were incubated for 72 hr at 37° C. before the cell viability was determined by a MTS-assay performed according to the manufacturer's instruction (CellTiter 96® AQueous One Solution Cell Proliferation Assay, Promega). […]
compound,measurement,setting,value
CC(=O)OC1C(C)OC(OC2C(C)OC(OC(=O)[C@]34CCC(C)(C)CC3C3=CCC5[C@@]6(C)CC[C@H](OC7OC(C(=O)O)C(O)C(OC8OCC(O)C(O)C8O)C7OC7OC(CO)C(O)C(O)C7O)[C@@](C)(/C=N/NC(=O)CCCCCN7C(=O)C=CC7=O)C6CC[C@@]5(C)[C@]3(C)C[C@H]4O)C(OC3OC(C)C(OC4OCC(O)C(OC5OC(CO)C(O)C(O)C5O)C4O)C(O)C3O)C2O)C(O)C1OC1OCC(O)C(O)C1O (some centres unmarked) [SO1861-EMCH],"cell killing activity / saporin gene delivery, K16C npSaporin polyplexes","K16C alone up to about 5000 μM of plasmids (printed), SO1861-EMCH = free, co-administered with K16C-polyplexes",enhanced cell killing activity
same,cytoplasmic delivery of npSaporin / cell killing,"co-administered with PAMAM G5(PEG-N3)6.2 npSaporin polyplexes, 73 nM Cetuximab-SO1861 or 4 μM SO1861-EMCH, 72 h",strongly enhanced the cytoplasmic delivery of npSaporin
